Paper PMC3954497 (Journal of Medicinal Chemistry, 2014)

Columns and labels:
[1] = target: SERT (Rattus norvegicus, UniProt P31652); assay type: binding; conditions: for displacement at the SERT: rat brain membranes; for increase in SERT affinity vs unsubstituted analogue: 4i vs 4g, 6c vs 6a
[2] = target: NET (Rattus norvegicus, UniProt Q63380); assay: biochemical; assay type: binding; conditions: 3 h, read-out: Ki [SE interval] NET
[3] = tested on: NCCc1c[nH]c2ccc(O)cc12; assay: cells, lysate or membranes; conditions: pH 7.4; 37.0 °C
[4] = target: DAT (Rattus norvegicus, UniProt P23977); assay type: binding; conditions: for improvement in DAT affinity vs unsubstituted analogue: 4i vs 4g, 6c vs 6a
Sequence of DAT (P23977 whole entry): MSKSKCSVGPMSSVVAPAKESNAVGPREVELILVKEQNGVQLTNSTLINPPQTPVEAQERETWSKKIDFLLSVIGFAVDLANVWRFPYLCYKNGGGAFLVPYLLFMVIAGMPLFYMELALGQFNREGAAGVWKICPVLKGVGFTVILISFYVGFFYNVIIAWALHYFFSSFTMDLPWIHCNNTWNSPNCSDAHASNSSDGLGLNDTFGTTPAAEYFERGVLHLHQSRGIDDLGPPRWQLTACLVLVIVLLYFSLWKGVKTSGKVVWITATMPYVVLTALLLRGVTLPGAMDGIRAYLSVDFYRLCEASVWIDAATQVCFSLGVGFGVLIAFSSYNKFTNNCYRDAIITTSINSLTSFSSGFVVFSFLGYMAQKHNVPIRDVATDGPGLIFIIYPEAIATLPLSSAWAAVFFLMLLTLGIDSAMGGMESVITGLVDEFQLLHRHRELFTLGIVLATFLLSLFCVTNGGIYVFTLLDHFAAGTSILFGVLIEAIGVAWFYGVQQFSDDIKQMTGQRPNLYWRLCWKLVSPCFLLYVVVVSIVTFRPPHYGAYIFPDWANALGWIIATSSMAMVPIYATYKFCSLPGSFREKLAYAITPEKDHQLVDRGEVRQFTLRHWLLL

Sequence of NET (Q63380 1-617): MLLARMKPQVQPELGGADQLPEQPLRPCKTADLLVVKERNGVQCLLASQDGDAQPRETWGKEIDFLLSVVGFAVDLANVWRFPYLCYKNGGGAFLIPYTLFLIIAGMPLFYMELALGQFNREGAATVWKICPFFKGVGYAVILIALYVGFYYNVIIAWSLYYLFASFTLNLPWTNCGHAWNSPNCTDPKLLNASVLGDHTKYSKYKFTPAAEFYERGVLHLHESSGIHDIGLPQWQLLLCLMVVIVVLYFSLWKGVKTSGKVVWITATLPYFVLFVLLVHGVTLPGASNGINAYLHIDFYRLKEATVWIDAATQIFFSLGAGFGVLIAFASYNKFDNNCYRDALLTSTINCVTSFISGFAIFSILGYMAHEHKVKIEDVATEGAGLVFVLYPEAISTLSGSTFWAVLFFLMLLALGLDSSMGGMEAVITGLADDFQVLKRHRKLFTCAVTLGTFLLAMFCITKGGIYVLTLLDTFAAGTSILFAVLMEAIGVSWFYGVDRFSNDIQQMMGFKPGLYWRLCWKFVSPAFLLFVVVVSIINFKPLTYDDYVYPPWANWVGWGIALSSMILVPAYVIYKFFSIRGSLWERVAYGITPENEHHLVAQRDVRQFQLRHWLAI
Sequence of SERT (P31652 whole entry): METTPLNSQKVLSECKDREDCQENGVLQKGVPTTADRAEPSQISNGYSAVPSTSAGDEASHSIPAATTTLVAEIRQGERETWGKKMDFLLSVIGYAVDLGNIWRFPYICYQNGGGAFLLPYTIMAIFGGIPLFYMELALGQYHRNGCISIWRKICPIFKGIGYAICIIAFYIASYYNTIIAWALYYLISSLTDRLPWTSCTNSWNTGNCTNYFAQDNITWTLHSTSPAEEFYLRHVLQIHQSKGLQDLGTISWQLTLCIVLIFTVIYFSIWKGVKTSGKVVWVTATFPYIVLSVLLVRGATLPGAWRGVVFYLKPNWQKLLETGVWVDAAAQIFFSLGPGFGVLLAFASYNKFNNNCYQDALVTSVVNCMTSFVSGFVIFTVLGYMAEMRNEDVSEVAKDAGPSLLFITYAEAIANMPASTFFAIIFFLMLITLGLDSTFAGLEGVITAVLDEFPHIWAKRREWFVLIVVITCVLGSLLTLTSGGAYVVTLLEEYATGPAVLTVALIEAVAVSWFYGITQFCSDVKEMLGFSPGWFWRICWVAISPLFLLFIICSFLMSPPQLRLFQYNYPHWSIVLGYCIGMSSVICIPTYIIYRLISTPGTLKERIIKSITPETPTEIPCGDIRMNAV

For O=C(CSC(c1ccc(Cl)cc1)c1ccc(Cl)cc1)NCCCc1ccccc1 [4w, 2-((Bis(4-chlorophenyl)methyl)thio)-N-(3-phenylpropyl)acetamide], the “displacement at the SERT” value [1] was “no displacement” and the inhibition at 100 µM [2] was under 50%.
In the case of CNC(=O)C[S+]([O-])C(c1ccccc1)c1ccccc1 (stereo not drawn) [5f, 2-(Benzhydrylsulfinyl)-N-methylacetamide], the inhibition [2] is reported as under 50%.
Molecule C=CCNC(=O)CSC(c1ccccc1)c1ccccc1 [4j, N-Allyl-2-(benzhydrylthio)acetamide] has an inhibition [2] of under 50%.
In the case of O=C(CSC(c1ccc(Br)cc1)c1ccc(Br)cc1)NCCCCc1ccccc1 [4z, 2-((Bis(4-bromophenyl)methyl)thio)-N-(4-phenylbutyl)acetamide], the “displacement at the SERT” value [1] is reported as “no displacement” and the inhibition at 100 µM [2] is reported as under 50%.
For O=C(C[S+]([O-])C(c1ccc(Br)cc1)c1ccc(Br)cc1)NCCCc1ccccc1 (stereo not drawn) [5g, 2-((Bis(4-bromophenyl)methyl)sulfinyl)-N-(3-phenylpropyl)acetamide], the inhibition at 100 µM [2] was under 50%.
In the case of CCCCNC(=O)CSC(c1ccccc1)c1ccccc1 [4r, 2-(Benzhydrylthio)-N-butylacetamide], the inhibition [2] is reported as under 50%.
In the case of O=C(CSC(c1ccccc1)c1ccccc1)NCCCc1ccccc1 [4u, 2-(Benzhydrylthio)-N-(3-phenylpropyl)acetamide], the inhibition at 100 µM [2] is reported as under 50%.
Work on NC(=O)C[S+]([O-])C(c1cccc(F)c1)c1cccc(F)c1 (stereo not drawn) [5c, 2-((Bis(3-fluorophenyl)methyl)sulfinyl)acetamide] yielded an inhibition [2] of under 50%.
In the case of hSERT-WT (Homo sapiens), the Km [3] is reported as 520 [360–760] nM.
Molecule O=C(CSC(c1ccccc1)c1ccccc1)NCC1CC1 [4o, 2-(Benzhydrylthio)-N-(cyclopropylmethyl)acetamide] has an inhibition [2] of under 50%.
Molecule NC(=O)CSC(c1ccccc1)c1ccccc1 [4a, 2-(Benzhydrylthio)acetamide] has an inhibition [2] of under 50%.
For O=C(CSC(c1ccc(F)cc1)c1ccc(F)cc1)NCCCc1ccccc1 [4v, 2-((Bis(4-fluorophenyl)methyl)thio)-N-(3-phenylpropyl)acetamide], the inhibition at 100 µM [2] was under 50%.
Cc1ccc(C(c2ccc(C)cc2)[S+]([O-])CC(N)=O)cc1 (stereo not drawn) [5a, 2-((Di-p-tolylmethyl)sulfinyl)acetamide] gave an inhibition [2] of under 50%.
For NCCSC(c1ccc(Br)cc1)c1ccc(Br)cc1 [6c, 2-((Bis(4-bromophenyl)methyl)thio)ethan-1-amine], the “increase in SERT affinity vs unsubstituted analogue” value [1] was 9 fold and the “improvement in DAT affinity vs unsubstituted analogue” value [4] was 3 fold.
For NC(=O)C[S+]([O-])C(c1cccc(Cl)c1)c1cccc(Cl)c1 (stereo not drawn) [5d, 2-((Bis(3-chlorophenyl)methyl)sulfinyl)acetamide], the inhibition [2] was under 50%.
In the case of NC(=O)C[S+]([O-])C(c1ccccc1)c1cccc(Br)c1 (stereo not drawn) [5e, 2-(((3-Bromophenyl)phenylmethyl)sulfinyl)acetamide], the “displacement at the SERT” value [1] is reported as “no displacement” and the inhibition [2] is reported as under 50%.
In the case of O=C(CSC(c1ccc(Br)cc1)c1ccc(Br)cc1)NCC1CC1 [4q, 2-((Bis(4-bromophenyl)methyl)thio)-N-(cyclopropylmethyl)acetamide], the inhibition [2] is reported as under 50%.
For CNC(=O)CSC(c1ccc(Br)cc1)c1ccc(Br)cc1 [4i, 2-((Bis(4-bromophenyl)methyl)thio)-N-methylacetamide], the “increase in SERT affinity vs unsubstituted analogue” value [1] was over 50 fold and the “improvement in DAT affinity vs unsubstituted analogue” value [4] was 6 fold.
NCCSC(c1ccccc1)c1ccccc1 [6a, 2-(Benzhydrylthio)ethan-1-amine] was tested, and the “improved DAT affinity compared to (±)-1” value [4] was “about 20 fold”.
